Measurements taken from PubChem BioAssay AID2060333 (Molecular Pharmacology Branch, DTP, NCI, 2025).

Test system: 845751-090-R-J2-PDC tumor spheroid viability
Assay: Anticancer human tumor 845751-090-R-J2-PDC patient-derived head and neck squamous carcinoma cell line growth inhibition [IpAb]
Conditions: spheroids with HUVEC and MSC; for IC50: curve of first compound; for viability, T/C: stronger effect = lower value; active = viability on the fitted dose curve at most 10% of control; inactive = the rest
How it was run: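 Multi-cell spheroids of 60% tumour cells, 25% HUVEC and 15% MSC in ultra-low-attachment U-bottom wells, treated with agents combined with ipatasertib or abemaciclib. Half-log ranges top out near clinical Cmax, or 10 microM when Cmax is unknown.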
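Note: spheroids exposed to compounds for 7 days before readout.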
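Throughout, for viability, T/C: CTG3D luminescence normalised so that 100% = DMSO vehicle control.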

C=CCn1c(=O)c2cnc(Nc3ccc(N4CCN(C)CC4)cc3)nc2n1-c1cccc(C(C)(C)O)n1 + CCN1CCN(Cc2ccc(Nc3ncc(F)c(-c4cc(F)c5nc(C)n(C(C)C)c5c4)n3)nc2)CC1
inactive: viability, T/C (second compound 0.01 µM, first compound 0.0316 µM) 104% | viability, T/C (second compound 0.01 µM, first compound 0.1 µM) 68.3% | viability, T/C (second compound 0.01 µM, first compound 0.316 µM) 68.3% | viability, T/C (second compound 0.01 µM, first compound 1 µM) 57.4% | viability, T/C (second compound 0.01 µM, first compound 3.16 µM) 50.8% | viability, T/C (second compound 0.01 µM, first compound 10 µM) 48.9% | viability, T/C (second compound 0.0316 µM, first compound 0.0316 µM) 66.4% | viability, T/C (second compound 0.0316 µM, first compound 0.1 µM) 71.4% | viability, T/C (second compound 0.0316 µM, first compound 0.316 µM) 62.2% | viability, T/C (second compound 0.0316 µM, first compound 1 µM) 60.8% | viability, T/C (second compound 0.0316 µM, first compound 3.16 µM) 53.1% | viability, T/C (second compound 0.0316 µM, first compound 10 µM) 40.8% | viability, T/C (second compound 0.1 µM, first compound 0.0316 µM) 66.8% | viability, T/C (second compound 0.1 µM, first compound 0.1 µM) 64.8% | viability, T/C (second compound 0.1 µM, first compound 0.316 µM) 60.8% | viability, T/C (second compound 0.1 µM, first compound 1 µM) 47.7% | viability, T/C (second compound 0.1 µM, first compound 3.16 µM) 50.5% | viability, T/C (second compound 0.1 µM, first compound 10 µM) 43.2% | viability, T/C (second compound 0.316 µM, first compound 0.0316 µM) 59% | viability, T/C (second compound 0.316 µM, first compound 0.1 µM) 68.7% | viability, T/C (second compound 0.316 µM, first compound 0.316 µM) 69.2% | viability, T/C (second compound 0.316 µM, first compound 1 µM) 60.3% | viability, T/C (second compound 0.316 µM, first compound 3.16 µM) 59.8% | viability, T/C (second compound 0.316 µM, first compound 10 µM) 49.1% | viability, T/C (second compound 1 µM, first compound 0.0316 µM) 88.9% | viability, T/C (second compound 1 µM, first compound 0.1 µM) 97.6% | viability, T/C (second compound 1 µM, first compound 0.316 µM) 83.9% | viability, T/C (second compound 1 µM, first compound 1 µM) 107% | viability, T/C (second compound 1 µM, first compound 3.16 µM) 95.7% | viability, T/C (second compound 1 µM, first compound 10 µM) 66.7%
> 10 µM: IC50 (second compound 0.01 µM) | IC50 (second compound 1 µM)
2 µM: IC50 (second compound 0.1 µM)
4.17 µM: IC50 (second compound 0.0316 µM)
8.97 µM: IC50 (second compound 0.316 µM)

Cn1cnc2c(F)c(Nc3ccc(Br)cc3Cl)c(C(=O)NOCCO)cc21 + CCN1CCN(Cc2ccc(Nc3ncc(F)c(-c4cc(F)c5nc(C)n(C(C)C)c5c4)n3)nc2)CC1
inactive: viability, T/C (second compound 0.01 µM, first compound 0.00949 µM) 198% | viability, T/C (second compound 0.01 µM, first compound 0.03 µM) 194% | viability, T/C (second compound 0.01 µM, first compound 0.0949 µM) 139% | viability, T/C (second compound 0.01 µM, first compound 0.3 µM) 129% | viability, T/C (second compound 0.01 µM, first compound 0.949 µM) 109% | viability, T/C (second compound 0.01 µM, first compound 3 µM) 69.8% | viability, T/C (second compound 0.0316 µM, first compound 0.00949 µM) 171% | viability, T/C (second compound 0.0316 µM, first compound 0.03 µM) 148% | viability, T/C (second compound 0.0316 µM, first compound 0.0949 µM) 125% | viability, T/C (second compound 0.0316 µM, first compound 0.3 µM) 107% | viability, T/C (second compound 0.0316 µM, first compound 0.949 µM) 89.3% | viability, T/C (second compound 0.0316 µM, first compound 3 µM) 71.5% | viability, T/C (second compound 0.1 µM, first compound 0.00949 µM) 147% | viability, T/C (second compound 0.1 µM, first compound 0.03 µM) 137% | viability, T/C (second compound 0.1 µM, first compound 0.0949 µM) 135% | viability, T/C (second compound 0.1 µM, first compound 0.3 µM) 106% | viability, T/C (second compound 0.1 µM, first compound 0.949 µM) 82.3% | viability, T/C (second compound 0.1 µM, first compound 3 µM) 63.8% | viability, T/C (second compound 0.316 µM, first compound 0.00949 µM) 163% | viability, T/C (second compound 0.316 µM, first compound 0.03 µM) 150% | viability, T/C (second compound 0.316 µM, first compound 0.0949 µM) 136% | viability, T/C (second compound 0.316 µM, first compound 0.3 µM) 128% | viability, T/C (second compound 0.316 µM, first compound 0.949 µM) 101% | viability, T/C (second compound 0.316 µM, first compound 3 µM) 97.2% | viability, T/C (second compound 1 µM, first compound 0.00949 µM) 159% | viability, T/C (second compound 1 µM, first compound 0.03 µM) 167% | viability, T/C (second compound 1 µM, first compound 0.0949 µM) 138% | viability, T/C (second compound 1 µM, first compound 0.3 µM) 114% | viability, T/C (second compound 1 µM, first compound 0.949 µM) 107% | viability, T/C (second compound 1 µM, first compound 3 µM) 64%
> 3 µM: IC50 (second compound 0.01 µM) | IC50 (second compound 0.0316 µM) | IC50 (second compound 0.1 µM) | IC50 (second compound 0.316 µM) | IC50 (second compound 1 µM)
